Earlier results as cited in patent US4041155A, “Long acting somatostatin composition” (American Home Products Corporation, priority 1974, dated 1977).

What was measured:
[1] = test system: GH secretion; settings: patients with acromegaly; cited from earlier work
[2] = test system: release of glucagon, insulin, and GH; settings: oral glucose tolerance and intravenous arginine tests; cited from earlier work
[3] = test system: circulating levels of GH; settings: subcutaneous route, cited from earlier work

Row | Substance | circulating levels of glucose [1] | circulating levels of insulin [1] | circulating levels of prolactin [1] | duration of biologic action [1] | free fatty acids [1] | inhibitory action on GH secretion [1] | levels of follicle-stimulating hormone [1] | levels of luteinizing hormone [1] | levels of thyrotropin [1] | release of GH [2] | release of glucagon [2] | release of insulin [2] | circulating levels of GH ([3]; "gentled" rats) | elevation of plasma GH concentration induced by sodium pentobarbital ([3]; rats) | duration of activity, half-life ([3]; rats, estimated)
1 | Somatostatin: cyclic disulfide tetradecapeptide; Somatotropin-release inhibiting factor secreted by the hypothalamus | fall | fall | fall | brief | increase | nearly complete | No effects | No effects | No effects | impairs the release | impairs the release | impairs the release | – | – | –
2 | linear somatostatin: reduced tetradecapeptide; differs from cyclic form by lacking the bridging bond between the two cysteinyl sulfhydryls | – | – | – | – | – | – | – | – | – | – | – | – | lowers the circulating levels of GH | prevents the elevation of plasma GH concentration | less than ten minutes
